The compounds below were run against T1, sGC (Homo sapiens, UniProt Q02108+Q02153) (assay: lnCap cell-based cGMP expression assay (stimulating activity for sGC)). Conditions: with DETA-NO, 37° C. 30 min, HTRF cGMP.
T1 construct: Preparation of LNCap Cells; endogenous in cells; host or cells: LNCaP cells (14th generation), no transfection described
T1 sequence (Q02153 1-619): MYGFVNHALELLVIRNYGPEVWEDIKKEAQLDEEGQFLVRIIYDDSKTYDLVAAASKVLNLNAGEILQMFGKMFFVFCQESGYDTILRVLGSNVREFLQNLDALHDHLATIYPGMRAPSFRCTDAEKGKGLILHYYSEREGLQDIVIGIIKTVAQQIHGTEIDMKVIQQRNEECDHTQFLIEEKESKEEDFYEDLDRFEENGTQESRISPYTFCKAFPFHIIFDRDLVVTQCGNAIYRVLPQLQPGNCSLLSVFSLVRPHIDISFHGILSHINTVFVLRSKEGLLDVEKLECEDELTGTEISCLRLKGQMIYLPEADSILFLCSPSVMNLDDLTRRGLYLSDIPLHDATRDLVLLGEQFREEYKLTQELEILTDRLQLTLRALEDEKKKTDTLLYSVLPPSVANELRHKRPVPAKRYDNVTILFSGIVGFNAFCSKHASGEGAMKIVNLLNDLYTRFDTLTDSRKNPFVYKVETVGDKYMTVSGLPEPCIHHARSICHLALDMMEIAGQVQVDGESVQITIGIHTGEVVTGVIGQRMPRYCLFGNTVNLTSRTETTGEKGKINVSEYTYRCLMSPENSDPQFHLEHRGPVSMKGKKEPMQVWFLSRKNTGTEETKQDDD
T1 sequence (Q02108 1-690): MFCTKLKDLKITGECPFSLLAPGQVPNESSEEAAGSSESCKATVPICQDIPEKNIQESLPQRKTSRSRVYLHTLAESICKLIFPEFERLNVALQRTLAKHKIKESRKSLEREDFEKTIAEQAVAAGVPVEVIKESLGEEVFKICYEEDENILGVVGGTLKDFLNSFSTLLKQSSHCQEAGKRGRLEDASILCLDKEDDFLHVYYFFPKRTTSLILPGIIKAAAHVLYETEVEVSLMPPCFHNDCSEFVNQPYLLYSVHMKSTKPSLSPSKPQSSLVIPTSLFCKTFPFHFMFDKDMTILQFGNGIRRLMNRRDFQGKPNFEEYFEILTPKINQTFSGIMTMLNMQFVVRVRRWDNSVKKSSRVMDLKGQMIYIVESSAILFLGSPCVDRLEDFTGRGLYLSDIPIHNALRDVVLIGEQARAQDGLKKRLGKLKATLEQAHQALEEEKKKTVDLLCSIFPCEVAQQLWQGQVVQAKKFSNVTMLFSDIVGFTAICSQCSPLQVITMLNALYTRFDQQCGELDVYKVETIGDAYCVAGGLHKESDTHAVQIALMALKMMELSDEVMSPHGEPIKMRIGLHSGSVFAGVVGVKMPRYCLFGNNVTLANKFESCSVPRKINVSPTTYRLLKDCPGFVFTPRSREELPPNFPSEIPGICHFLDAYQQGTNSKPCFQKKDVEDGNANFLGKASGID
Description: I. lnCap Cell-Based cGMP Expression Assay
1) Preparation of Solutions
10% BSA (Bovine Serum Albumin)
10 g of BSA was dissolved in 100 mL of double distilled water (ddH2O) to give 10% BSA.
5 mM DETA (Diethylenetriamine)-NO
10 mg of DETA-NO was weighed out and dissolved in 12.2 mL of double distilled water (ddH2O) to give 5 mM DETA-NO, which was aliquoted and cryopreserved in a freezer at −20° C.
a) To 1 mL of a lysis buffer was added 50 μL of cGMP-D2 (D2-labeled cyclic guanosine monophosphate), and the mixture was well mixed.
b) To 1 mL of a lysis buffer was added 50 μL of anti-cGMP cryptate (Eu^3+ cryptate-labeled anti-cyclic guanosine monophosphate antibody), and the mixture was well mixed.
(1) The compounds were diluted to 5 mM with DMSO. 10 μL of each of the compounds was transferred to a shallow well plate for Echo.
(2) The compounds were gradiently diluted with Echo. Each of the compounds was diluted to obtain 10 concentration gradients, and 50 nL of each of the concentration gradients was added to a 384 microwell plate.
3) Preparation of LNCap Cells
(1) LNCap medium: RPMI1640+10% fetal bovine serum+1% […].
(2) Phosphate buffered saline, pancreatin and the medium used in the process of cell passaging were pre-heated in a water bath at 37° C.
(3) The cells (the 14th generation) were taken out of the 37° C., 5% CO2 incubator, and the old medium was pipetted off the culture flask.
(4) 5 mL of phosphate buffered saline was pipetted into the culture flask to rinse the cells, and then the liquid was discarded.
(5) 3 mL of pancreatin was pipetted into the culture flask. After the culture flask was shaken, the liquid was discarded, and the culture flask was placed in the incubator.
(6) After about 2 min the culture flask was taken out. […] The cell suspension was transferred to a 50 mL centrifuge tube.
(7) 0.7 mL of the cell suspension was pipetted into a counter cup and the cells were counted on a ViCell XR. The remaining cells were centrifuged at 1000 rpm for 5 min, and the supernatant was removed.
(8) The cells were washed by adding 10 mL of the washing buffer and centrifuged at 1000 rpm for 5 min, and the supernatant was removed.
(9) The assay buffer was added to adjust the cell concentration to 1.25×10^6/mL. The cells were added to the microwell plate at 8 μL/well.
4) Formulation and Addition of DETA-NO
(1) 10 μL of 5 mM DETA-NO was added to 1240 μL of the assay buffer and to 1657 μL of the assay buffer to give 40 μM DETA-NO and 30 μM DETA-NO, respectively.
(2) DETA-NO was transferred to the 384 microwell plate at 2 μL/well using Bravo.
(3) The mixtures were centrifuged at 1500 rpm for 5 min. The microwell plate was incubated at 37° C. for 30 min.
5) Preparation of cGMP Standard Curve
(1) 1 mM of the cGMP stock solution was diluted to 10 μM with the assay buffer. Then 4-fold gradient dilution was performed to obtain 11 concentration gradients.
(2) The cGMP dilutions were added to the microwell plate at 10 μL/well.
6) Addition of Detection Reagents and Plate Reading
(1) cGMP-D2 was transferred to the 384 microwell plate at 5 μL/well using Bravo. The mixtures were centrifuged at 1500 rpm for 1 min.
(2) The anti-cGMP cryptate was transferred to the 384 microwell plate at 5 μL/well using Bravo. The mixtures were centrifuged at 1500 rpm for 1 min.
(3) The plate was incubated at room temperature for 1 h.
(4) 665/615 was read using envision.
(1) cGMP standard curve: a standard curve was generated using Graphpad prism based on the cGMP concentrations and 665/615 ratios.
(2) Conversion of HTRF (homogeneous time-resolved fluorescence) ratios (665/615) to cGMP concentrations: in Graphpad prism, the HTRF ratios (665/615) were copied into the ratio column of the cGMP standard curve, and the “Log inhibitor vs response-variable slope” analysis was run with “interpolate” selected to convert the HTRF ratios (665/615) to cGMP concentrations. […]

Row | MEC: minimum effective concentration to stimulate cGMP production (three times greater than the basal value) in lnCap cells | SMILES
1 | 31.53 nM | CC12C(=O)Nc3nc(-c4nn(Cc5ccccc5F)c5ncc(F)cc45)nc(c31)NC(=O)C2(F)F (stereo not shown) [Compound 034]
2 | 24.9 nM | CC12CCNc3nc(-c4nn(Cc5c(F)cccc5F)c5ncc(F)cc45)nc(c31)NC(=O)C2 (stereo not shown) [Compound 022]
3 | 6.38 nM | CC12CC(=O)Nc3nc(-c4nn(Cc5ccccc5F)c5ncc(F)cc45)nc(c31)NC2=O (stereo not shown) [Compound 001]
4 | 19.78 nM | CC1(C)C(=O)Nc2nc(-c3nn(Cc4ccccc4F)c4ncc(F)cc34)nc3c2C1C(=O)N3 (stereo not shown) [Compound 031]
5 | 28.15 nM | CC12OCCNc3nc(-c4nn(Cc5ccccc5F)c5ncc(F)cc45)nc(c31)NC2=O (stereo not shown) [Compound 039]
6 | 118.6 nM | CC12CC(=O)Nc3nc(-c4nn(CCC(F)(F)C(F)(F)F)c5ncc(F)cc45)nc(c31)NC(=O)C2 [Compound 012]
7 | 81.22 nM | O=c1[nH]c2nc(-c3nn(Cc4ccccc4F)c4ncc(F)cc34)nc3c2n1CCN3 [Compound 002]
8 | 3.12 nM | CC12CCC(=O)Nc3nc(-c4nn(Cc5c(F)cccc5F)c5ncc(F)cc45)nc(c31)NC2=O (stereo not shown) [Compound 013]
9 | 402.7 nM | CC12CCC(=O)Nc3nc(-c4nn(CCC(F)(F)C(F)(F)F)c5ncc(F)cc45)nc(c31)NC(=O)C2 (stereo not shown) [Compound 014]
10 | 84.34 nM | CN1C(=O)C2(C)CC(=O)Nc3nc(-c4nn(Cc5ccccc5F)c5ncc(F)cc45)nc1c32 (stereo not shown) [Compound 030]
11 | 126.5 nM | COC(=O)NC12CCOc3nc(-c4nn(Cc5ccccc5F)c5ncc(F)cc45)nc(c31)NC2=O (stereo not shown) [Compound 049]
12 | 88.37 nM | CC12CCC(=O)Nc3nc(-c4nn(Cc5ccccc5F)c5ncc(F)cc45)nc(c31)NC(=O)C2 (stereo not shown) [Compound 008]
13 | 3.46 nM | CC12CC(=O)Nc3nc(-c4nn(Cc5c(F)cccc5F)c5ncc(F)cc45)nc(c31)NC2=O (stereo not shown) [Compound 017]
14 | 26.12 nM | CC12CCNc3nc(-c4nn(CCC(F)(F)C(F)(F)F)c5ncc(F)cc45)nc(c31)NC(=O)C2 (stereo not shown) [Compound 023]
15 | 37.34 nM | CN1C(=O)CC2(C)C(=O)Nc3nc(-c4nn(Cc5ccccc5F)c5ncc(F)cc45)nc1c32 (stereo not shown) [Compound 029]
16 | 17.51 nM | CC12CC(=O)Nc3nc(-c4nn(CCC(F)(F)C(F)(F)F)c5ncc(F)cc45)nc(c31)NC2=O (stereo not shown) [Compound 016]
17 | 5.8 nM | CC12CCNc3nc(-c4nn(CCC(F)(F)C(F)(F)F)c5ncc(F)cc45)nc(c31)NC2=O (stereo not shown) [Compound 009]
18 | 2.4 nM | CC12CCC(=O)Nc3nc(-c4nn(Cc5ccccc5F)c5ncc(F)cc45)nc(c31)NC2=O (stereo not shown) [Compound 019]
19 | 7.59 nM | CC12CC(=O)Nc3nc(-c4nn(Cc5ccccc5F)c5ncc(F)cc45)nc(c31)NC2=O (stereo not shown) [Compound 024]
20 | 55.54 nM | CC12CC(=O)Nc3nc(-c4nn(Cc5ccccc5F)c5ncc(F)cc45)nc(c31)NC(=O)C2 [Compound 007]
21 | 142.79 nM | O=C1Cn2c(=O)[nH]c3nc(-c4nn(Cc5ccccc5F)c5ncc(F)cc45)nc(c32)N1 [Compound 004]
22 | 13.12 nM | CC12CCC(=O)Nc3nc(-c4nn(CCC(F)(F)C(F)(F)F)c5ncc(F)cc45)nc(c31)NC2=O (stereo not shown) [Compound 018]
23 | 51.76 nM | CC12CC(=O)Nc3nc(-c4nn(Cc5c(F)cccc5F)c5ncc(F)cc45)nc(c31)NC(=O)C2 [Compound 010]
24 | 21.26 nM | CC12CNC(=O)c3nc(-c4nn(Cc5ccccc5F)c5ncc(F)cc45)nc(c31)NC2=O (stereo not shown) [Compound 028]
25 | 178.6 nM | CC12CCC(=O)Nc3nc(-c4nn(Cc5c(F)cccc5F)c5ncc(F)cc45)nc(c31)NC(=O)C2 (stereo not shown) [Compound 011]
26 | 231.7 nM | CCNC(=O)OC12CCOc3nc(-c4nn(Cc5ccccc5F)c5ncc(F)cc45)nc(c31)NC2=O (stereo not shown) [Compound 050]
27 | 7.97 nM | CC12CCNc3nc(-c4nn(Cc5ccccc5F)c5ncc(F)cc45)nc(c31)NC2=O (stereo not shown) [Compound 003]
28 | 4.66 nM | CC12CCNc3nc(-c4nn(Cc5c(F)cccc5F)c5ncc(F)cc45)nc(c31)NC2=O (stereo not shown) [Compound 015]
